Measured values from ChEMBL document CHEMBL2010722, “Structure-activity relationship study of beta-carboline derivatives as haspin kinase inhibitors” (Bioorg Med Chem Lett, 2012).

Key:
[1] = target: Tyrosine-protein kinase Lck (Homo sapiens) (UniProt P06239); test: Inhibition of LCK at 10 uM
[2] = target: Tyrosine-protein kinase Lyn (Homo sapiens) (UniProt P07948); test: Inhibition of LYNb at 10 uM
[3] = Inhibition of CDK4/[…] at 10 uM
[4] = target: Mitogen-activated protein kinase 8 (Homo sapiens) (UniProt P45983); test: Inhibition of JNK1 at 10 uM
[5] = target: Mitogen-activated protein kinase 7 (Homo sapiens) (UniProt Q13164); test: Inhibition of Erk5 at 10 uM
[6] = target: Serine/threonine-protein kinase BRSK2 (Homo sapiens) (UniProt Q8IWQ3); test: Inhibition of BRSK2 at 10 uM
[7] = target: AMP-activated protein kinase, AMPK (Homo sapiens) (UniProt P54646+O43741+P54619+Q9UGJ0+Q9Y478+Q13131+Q9UGI9); test: Inhibition of AMPKalpha2/beta1/gamma1 at 10 uM; type: protein-complex assay
[8] = target: Casein kinase II alpha/beta (Homo sapiens) (UniProt P67870+P68400); test: Inhibition of CK2a1/b at 10 uM; type: protein-complex assay
[9] = target: [Pyruvate dehydrogenase (acetyl-transferring)] kinase isozyme 4, mitochondrial (Homo sapiens) (UniProt Q16654); test: Inhibition of PDHK4 at 10 uM
[10] = target: Wee1-like protein kinase (Homo sapiens) (UniProt P30291); test: Inhibition of WEE1 at 10 uM
[11] = target: Proto-oncogene tyrosine-protein kinase Src (Homo sapiens) (UniProt P12931); test: Inhibition of SRC at 10 uM
[12] = target: Mitogen-activated protein kinase kinase kinase 12 (Homo sapiens) (UniProt Q12852); test: Inhibition of DLK at 10 uM
[13] = target: Serine/threonine-protein kinase 26 (Homo sapiens) (UniProt Q9P289); test: Inhibition of MST4 at 10 uM
[14] = target: RAF proto-oncogene serine/threonine-protein kinase (Homo sapiens) (UniProt P04049); test: Inhibition of RAF1 at 10 uM
[15] = target: Testis-specific serine/threonine-protein kinase 2 (Homo sapiens) (UniProt Q96PF2); test: Inhibition of TSSK2 at 10 uM
[16] = target: Homeodomain-interacting protein kinase 1 (Homo sapiens) (UniProt Q86Z02); test: Inhibition of HIPK1 at 10 uM
[17] = target: Epidermal growth factor receptor (Homo sapiens) (UniProt P00533); test: Inhibition of EGFR at 10 uM
[18] = target: Ephrin type-B receptor 1 (Homo sapiens) (UniProt P54762); test: Inhibition of EPHB1 at 10 uM
[19] = target: Mitogen-activated protein kinase 9 (Homo sapiens) (UniProt P45984); test: Inhibition of JNK2 at 10 uM
[20] = target: Serine/threonine-protein kinase PAK 3 (Homo sapiens) (UniProt O75914); test: Inhibition of PAK3 at 10 uM
[21] = target: Proto-oncogene tyrosine-protein kinase receptor Ret (Homo sapiens) (UniProt P07949); test: Inhibition of RET at 10 uM
[22] = target: Calcium/calmodulin-dependent protein kinase type 1 (Homo sapiens) (UniProt Q14012); test: Inhibition of CaMK1alpha at 10 uM
[23] = system: Mast/stem cell growth factor receptor Kit (Homo sapiens), P10721 [V654A]; test: Inhibition of KIT V654A mutant at 10 uM
[24] = target: Serine/threonine-protein kinase PLK1 (Homo sapiens) (UniProt P53350); test: Inhibition of PLK1 at 10 uM
[25] = target: Homeodomain-interacting protein kinase 3 (Homo sapiens) (UniProt Q9H422); test: Inhibition of HIPK3 at 10 uM
[26] = target: Tyrosine-protein kinase FRK (Homo sapiens) (UniProt P42685); test: Inhibition of FRK at 10 uM
[27] = target: Mitogen-activated protein kinase 10 (Homo sapiens) (UniProt P53779); test: Inhibition of JNK3 at 10 uM
[28] = target: Protein-tyrosine kinase 6 (Homo sapiens) (UniProt Q13882); test: Inhibition of BRK at 10 uM
[29] = system: Mast/stem cell growth factor receptor Kit (Homo sapiens), P10721 [T670I]; test: Inhibition of KIT T670I mutant at 10 uM
[30] = target: Serine/threonine-protein kinase Nek9 (Homo sapiens) (UniProt Q8TD19); test: Inhibition of NEK9 at 10 uM
[31] = target: Dual specificity mitogen-activated protein kinase kinase 7 (Homo sapiens) (UniProt O14733); test: Inhibition of MAP2K7 at 10 uM
[32] = target: Ribosomal protein S6 kinase alpha-3 (Homo sapiens) (UniProt P51812); test: Inhibition of RSK2 N-terminal at 10 uM
[33] = target: Receptor tyrosine-protein kinase erbB-2 (Homo sapiens) (UniProt P04626); test: Inhibition of HER2 at 10 uM
[34] = target: CDK9/cyclin T1 (Homo sapiens) (UniProt O60563+P50750); test: Inhibition of CDK9-CycT1 at 10 uM; type: protein-complex assay
[35] = target: Tyrosine-protein kinase ITK/TSK (Homo sapiens) (UniProt Q08881); test: Inhibition of ITK at 10 uM
[36] = target: RAC-gamma serine/threonine-protein kinase (Homo sapiens) (UniProt Q9Y243); test: Inhibition of AKT3 at 10 uM
[37] = target: Serine/threonine-protein kinase 4 (Homo sapiens) (UniProt Q13043); test: Inhibition of MST1 at 10 uM
[38] = target: Mitogen-activated protein kinase 11 (Homo sapiens) (UniProt Q15759); test: Inhibition of p38beta at 10 uM
[39] = target: RAC-alpha serine/threonine-protein kinase (Homo sapiens) (UniProt P31749); test: Inhibition of AKT1 at 10 uM
[40] = target: Cyclin-dependent kinase 2/cyclin E1 (Homo sapiens) (UniProt P24864+P24941); test: Inhibition of CDK2-Cyclin E1 at 10 uM; type: protein-complex assay
EML4-ALK (Homo sapiens) = EML4-ALK (Homo sapiens) (UniProt Q9UM73+Q9HC35); test: Inhibition of EML4-ALK at 10 uM; type: protein assay
[41] = target: Non-receptor tyrosine-protein kinase TYK2 (Homo sapiens) (UniProt P29597); test: Inhibition of TYK2 at 10 uM
[42] = target: 3-phosphoinositide-dependent protein kinase 1 (Homo sapiens) (UniProt O15530); test: Inhibition of PDK1 at 10 uM
[43] = target: Ribosomal protein S6 kinase alpha-5 (Homo sapiens) (UniProt O75582); test: Inhibition of MSK1 N-terminal at 10 uM
[44] = target: cAMP-dependent protein kinase catalytic subunit alpha (Homo sapiens) (UniProt P17612); test: Inhibition of PKACa at 10 uM
[45] = target: Dual specificity tyrosine-phosphorylation-regulated kinase 2 (Homo sapiens) (UniProt Q92630); test: Inhibition of DYRK2 at 10 uM

Chain of Ribosomal protein S6 kinase alpha-5 (Homo sapiens) (O75582 whole entry, looked up): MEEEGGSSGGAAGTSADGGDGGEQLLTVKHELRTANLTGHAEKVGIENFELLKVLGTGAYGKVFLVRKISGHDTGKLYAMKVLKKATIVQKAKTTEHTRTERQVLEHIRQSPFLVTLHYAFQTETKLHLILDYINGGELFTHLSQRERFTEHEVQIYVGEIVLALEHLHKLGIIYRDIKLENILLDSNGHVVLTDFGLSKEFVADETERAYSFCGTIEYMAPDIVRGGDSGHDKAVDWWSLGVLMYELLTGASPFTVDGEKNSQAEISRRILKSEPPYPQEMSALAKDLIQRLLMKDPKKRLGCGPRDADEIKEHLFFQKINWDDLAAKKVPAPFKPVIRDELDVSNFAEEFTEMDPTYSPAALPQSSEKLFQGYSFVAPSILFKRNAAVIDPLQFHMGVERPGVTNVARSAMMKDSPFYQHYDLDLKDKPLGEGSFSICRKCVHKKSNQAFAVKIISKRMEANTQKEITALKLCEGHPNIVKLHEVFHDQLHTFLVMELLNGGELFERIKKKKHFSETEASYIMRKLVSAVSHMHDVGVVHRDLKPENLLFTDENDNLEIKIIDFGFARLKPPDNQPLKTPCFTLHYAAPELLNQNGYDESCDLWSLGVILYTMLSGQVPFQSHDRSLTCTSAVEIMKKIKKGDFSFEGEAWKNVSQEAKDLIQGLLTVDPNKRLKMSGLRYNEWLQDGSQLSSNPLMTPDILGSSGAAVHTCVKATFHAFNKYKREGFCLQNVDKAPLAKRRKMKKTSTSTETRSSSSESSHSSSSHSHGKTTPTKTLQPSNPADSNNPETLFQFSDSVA
Chain of Serine/threonine-protein kinase Nek9 (Homo sapiens) (Q8TD19 whole entry): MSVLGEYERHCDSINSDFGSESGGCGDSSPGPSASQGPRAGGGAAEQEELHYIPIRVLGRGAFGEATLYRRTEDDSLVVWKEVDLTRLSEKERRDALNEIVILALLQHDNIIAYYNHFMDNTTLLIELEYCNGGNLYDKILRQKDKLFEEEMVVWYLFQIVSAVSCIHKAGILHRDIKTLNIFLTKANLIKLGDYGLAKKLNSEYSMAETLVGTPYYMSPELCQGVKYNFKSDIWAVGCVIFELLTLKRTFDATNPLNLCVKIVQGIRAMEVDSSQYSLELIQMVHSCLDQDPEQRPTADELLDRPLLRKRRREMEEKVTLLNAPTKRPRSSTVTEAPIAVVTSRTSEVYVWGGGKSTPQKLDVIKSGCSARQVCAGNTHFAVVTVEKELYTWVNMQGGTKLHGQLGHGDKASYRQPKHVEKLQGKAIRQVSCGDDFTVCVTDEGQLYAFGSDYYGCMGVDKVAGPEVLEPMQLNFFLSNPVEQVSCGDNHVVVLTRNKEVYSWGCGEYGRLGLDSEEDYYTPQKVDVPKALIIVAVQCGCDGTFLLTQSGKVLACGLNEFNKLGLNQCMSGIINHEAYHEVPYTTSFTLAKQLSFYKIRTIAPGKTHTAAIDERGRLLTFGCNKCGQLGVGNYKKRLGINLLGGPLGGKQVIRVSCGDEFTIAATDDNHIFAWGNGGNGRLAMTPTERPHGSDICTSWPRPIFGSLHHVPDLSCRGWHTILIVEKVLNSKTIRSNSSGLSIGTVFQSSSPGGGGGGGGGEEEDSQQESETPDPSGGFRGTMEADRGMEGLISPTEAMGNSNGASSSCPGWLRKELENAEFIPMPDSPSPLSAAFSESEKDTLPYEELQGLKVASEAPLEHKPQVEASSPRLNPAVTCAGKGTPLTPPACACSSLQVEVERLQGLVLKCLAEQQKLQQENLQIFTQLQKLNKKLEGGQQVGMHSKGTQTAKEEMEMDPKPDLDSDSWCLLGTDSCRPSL
Chain of Casein kinase II alpha/beta (Homo sapiens) (P67870 2-215 limits assumed): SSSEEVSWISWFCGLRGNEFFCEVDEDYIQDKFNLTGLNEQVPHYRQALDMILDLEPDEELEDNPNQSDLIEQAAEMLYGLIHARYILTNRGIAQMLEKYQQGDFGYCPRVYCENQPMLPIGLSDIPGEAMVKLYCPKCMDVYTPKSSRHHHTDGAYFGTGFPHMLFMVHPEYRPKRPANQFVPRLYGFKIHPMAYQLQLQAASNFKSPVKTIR
Chain of Casein kinase II alpha/beta (Homo sapiens) (P68400 whole entry partner): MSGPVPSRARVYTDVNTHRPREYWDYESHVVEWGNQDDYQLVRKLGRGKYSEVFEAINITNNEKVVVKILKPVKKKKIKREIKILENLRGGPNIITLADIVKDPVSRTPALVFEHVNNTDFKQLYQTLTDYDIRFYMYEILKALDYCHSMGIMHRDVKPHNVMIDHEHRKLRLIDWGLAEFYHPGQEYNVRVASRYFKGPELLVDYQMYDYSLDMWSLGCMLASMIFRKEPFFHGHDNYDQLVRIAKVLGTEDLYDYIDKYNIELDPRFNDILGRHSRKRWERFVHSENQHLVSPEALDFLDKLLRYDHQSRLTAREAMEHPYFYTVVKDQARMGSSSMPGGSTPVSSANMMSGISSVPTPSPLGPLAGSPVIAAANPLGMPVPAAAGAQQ
Chain of Mitogen-activated protein kinase 11 (Homo sapiens) (Q15759 whole entry): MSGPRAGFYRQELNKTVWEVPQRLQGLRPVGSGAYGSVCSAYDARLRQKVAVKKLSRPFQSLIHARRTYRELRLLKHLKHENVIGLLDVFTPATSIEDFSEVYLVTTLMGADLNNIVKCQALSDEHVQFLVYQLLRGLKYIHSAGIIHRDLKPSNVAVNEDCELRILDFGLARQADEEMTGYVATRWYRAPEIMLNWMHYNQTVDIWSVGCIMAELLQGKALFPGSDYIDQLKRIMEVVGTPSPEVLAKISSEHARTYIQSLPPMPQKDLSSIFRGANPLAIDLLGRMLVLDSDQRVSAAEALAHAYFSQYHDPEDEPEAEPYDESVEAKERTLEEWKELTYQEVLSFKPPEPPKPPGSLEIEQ
Chain of Wee1-like protein kinase (Homo sapiens) (P30291 whole entry, looked up): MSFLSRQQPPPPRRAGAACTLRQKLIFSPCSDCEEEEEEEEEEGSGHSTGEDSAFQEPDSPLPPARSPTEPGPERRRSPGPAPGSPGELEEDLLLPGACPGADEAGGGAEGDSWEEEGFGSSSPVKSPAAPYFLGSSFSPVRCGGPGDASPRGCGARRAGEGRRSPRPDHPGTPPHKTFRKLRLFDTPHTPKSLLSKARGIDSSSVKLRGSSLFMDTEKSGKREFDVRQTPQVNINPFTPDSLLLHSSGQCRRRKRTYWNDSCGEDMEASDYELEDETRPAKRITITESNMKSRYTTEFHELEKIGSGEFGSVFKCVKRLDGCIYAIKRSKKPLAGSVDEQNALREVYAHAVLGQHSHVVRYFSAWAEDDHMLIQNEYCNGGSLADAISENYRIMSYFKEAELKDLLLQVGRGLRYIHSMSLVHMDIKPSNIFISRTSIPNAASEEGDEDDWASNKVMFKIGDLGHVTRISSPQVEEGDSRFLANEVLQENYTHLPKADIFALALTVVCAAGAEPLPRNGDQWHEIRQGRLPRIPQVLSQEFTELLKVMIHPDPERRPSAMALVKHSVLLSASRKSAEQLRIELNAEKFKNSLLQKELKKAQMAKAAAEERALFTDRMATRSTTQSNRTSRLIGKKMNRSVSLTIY
Chain of Tyrosine-protein kinase FRK (Homo sapiens) (P42685 whole entry): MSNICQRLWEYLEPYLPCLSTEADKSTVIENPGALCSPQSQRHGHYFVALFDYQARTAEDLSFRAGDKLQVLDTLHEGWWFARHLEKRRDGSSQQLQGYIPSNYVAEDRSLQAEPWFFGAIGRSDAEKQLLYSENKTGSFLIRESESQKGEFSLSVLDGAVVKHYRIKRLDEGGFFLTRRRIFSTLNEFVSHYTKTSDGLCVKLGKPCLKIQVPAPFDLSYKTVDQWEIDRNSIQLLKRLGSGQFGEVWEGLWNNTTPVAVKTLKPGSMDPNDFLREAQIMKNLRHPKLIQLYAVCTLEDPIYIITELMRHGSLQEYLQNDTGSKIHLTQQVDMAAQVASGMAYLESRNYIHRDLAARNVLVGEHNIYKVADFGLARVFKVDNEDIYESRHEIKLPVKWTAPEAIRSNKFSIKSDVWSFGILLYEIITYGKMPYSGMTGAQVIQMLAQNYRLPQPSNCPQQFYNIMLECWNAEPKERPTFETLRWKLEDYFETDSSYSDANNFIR
Chain of Proto-oncogene tyrosine-protein kinase Src (Homo sapiens) (P12931 2-536 limits assumed): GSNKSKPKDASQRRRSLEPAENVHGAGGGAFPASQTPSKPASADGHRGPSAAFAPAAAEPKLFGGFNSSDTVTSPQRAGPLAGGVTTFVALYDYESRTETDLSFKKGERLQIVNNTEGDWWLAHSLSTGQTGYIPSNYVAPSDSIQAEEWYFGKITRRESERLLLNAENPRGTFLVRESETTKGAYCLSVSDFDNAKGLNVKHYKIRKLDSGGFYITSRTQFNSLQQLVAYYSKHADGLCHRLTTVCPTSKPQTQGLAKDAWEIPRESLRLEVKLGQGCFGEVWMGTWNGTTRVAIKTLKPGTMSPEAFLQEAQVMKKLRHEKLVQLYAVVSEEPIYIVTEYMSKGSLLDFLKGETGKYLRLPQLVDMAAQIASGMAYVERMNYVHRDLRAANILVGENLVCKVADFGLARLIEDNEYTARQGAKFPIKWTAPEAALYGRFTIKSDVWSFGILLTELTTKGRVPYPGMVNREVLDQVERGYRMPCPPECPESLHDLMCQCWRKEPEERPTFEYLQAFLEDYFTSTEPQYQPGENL
Chain of Calcium/calmodulin-dependent protein kinase type 1 (Homo sapiens) (Q14012 whole entry, looked up): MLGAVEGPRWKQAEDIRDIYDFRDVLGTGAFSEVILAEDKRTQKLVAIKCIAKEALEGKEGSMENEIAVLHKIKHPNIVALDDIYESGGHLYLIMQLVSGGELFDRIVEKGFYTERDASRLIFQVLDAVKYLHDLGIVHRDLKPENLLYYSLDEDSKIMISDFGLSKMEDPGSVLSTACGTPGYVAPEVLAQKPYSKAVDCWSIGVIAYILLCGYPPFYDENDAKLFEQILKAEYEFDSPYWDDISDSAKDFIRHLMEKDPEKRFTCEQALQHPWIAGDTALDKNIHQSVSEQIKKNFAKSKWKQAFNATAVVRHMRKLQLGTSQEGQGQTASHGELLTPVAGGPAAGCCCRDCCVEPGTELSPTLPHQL

COc1ccc2c3ccnc(C(F)(F)F)c3n(CCCCN)c2c1
inhibition [1]: 11%
inhibition [2]: 0%
inhibition [3]: 27%
inhibition [4]: 44%
inhibition [5]: 21%
inhibition [6]: 30%
inhibition [7]: 16%
inhibition [8]: 0%
inhibition [9]: 34%
inhibition [10]: 0%
inhibition [11]: 17%
inhibition [12]: 3%
inhibition [13]: 0%
inhibition [14]: 0%
inhibition [15]: 5%
inhibition [16]: 41%
inhibition [17]: 13%
inhibition [18]: 0%
inhibition [19]: 8%
inhibition [20]: 27%
inhibition [21]: 11%
inhibition [22]: 14%
inhibition [23]: 5%
inhibition [24]: 0%
inhibition [25]: 49%
inhibition [26]: 10%
inhibition [27]: 17%
inhibition [28]: 1%
inhibition [29]: 16%
inhibition [30]: 0%
inhibition [31]: 15%
inhibition [32]: 28%
inhibition [33]: 0%
inhibition [34]: 79%
inhibition [35]: 7%
inhibition [36]: 12%
inhibition [37]: 14%
inhibition [38]: 5%
inhibition [39]: 23%
inhibition [40]: 31%
inhibition (EML4-ALK (Homo sapiens)): 12%
inhibition [41]: 15%
inhibition [42]: 0%
inhibition [43]: 36%
inhibition [44]: 28%
inhibition [45]: 86%
